Experimental data taken from US10457663B2, “Pyrazol-pyridine derivatives” (Hoffmann-La Roche Inc., priority 2016, dated 2019).

What was measured:
human EAAT3 = target: T1, human EAAT3 (Homo sapiens, UniProt P43005); assay: FLIPR Membrane Potential (FMP) assay; assay type: cell-based; conditions: HEK-293 cells stably expressing human EAAT3; L-glutamate as agonist at EC80; antagonist applied 15 min before; Kb by Cheng-Prusoff from IC50
T1 construct: expressed in transfected cells; host or cells: HEK-293
T1 sequence (P43005 1-524): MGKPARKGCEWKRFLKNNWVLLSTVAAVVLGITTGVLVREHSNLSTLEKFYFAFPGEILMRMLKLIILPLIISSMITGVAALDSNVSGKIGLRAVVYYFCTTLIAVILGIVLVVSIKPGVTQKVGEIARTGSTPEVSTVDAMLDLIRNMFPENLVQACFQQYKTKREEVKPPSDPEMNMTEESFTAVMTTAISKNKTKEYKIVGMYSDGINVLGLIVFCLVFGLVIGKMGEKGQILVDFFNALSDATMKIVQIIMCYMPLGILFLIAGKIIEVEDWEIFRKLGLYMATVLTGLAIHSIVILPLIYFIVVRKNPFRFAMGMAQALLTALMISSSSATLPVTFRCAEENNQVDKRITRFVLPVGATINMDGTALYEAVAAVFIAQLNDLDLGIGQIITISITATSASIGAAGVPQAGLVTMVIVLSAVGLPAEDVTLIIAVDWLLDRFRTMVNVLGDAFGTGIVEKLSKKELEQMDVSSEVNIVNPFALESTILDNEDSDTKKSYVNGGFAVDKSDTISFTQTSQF
Protocol: The FLIPR Membrane Potential (FMP) assay
HEK-293 cells stably expressing human EAAT3 were seeded at 55 000 cells/well in growth medium (DMEM glutamate free (Invitrogen 11960-044), 1% Pen Strep (10 ml/l GIBCO BRL N^o 15140-023), 10% FCS non dialysed heat inactivated, 5 mg/l puromycin) in poly-D-lysine treated 96-well black microtiter plates with clear-bottom. After 24 h, the growth medium was removed and 100 μl/well of Krebs buffer (140 mM NaCl, 4.7 mM KCl, 2.5 mM CaCl2), 1.2 mM MgCl2, 11 mM HEPES, 10 mM D-glucose, pH=7.4) added. The cells were then loaded by adding 100 μl/well FMP assay dye (FLIPR Membrane Potential assay reagent, Molecular Devices). The 96-well plates were then incubated at 37° C. for 1 h. The depolarization of the cells will cause more dye to enter in the cells, where it will bind to intracellular proteins and lipids and cause an increase in the fluorescence signal. Antagonist potency at human EAAT3 was determined by using L-glutamate as agonist at a concentration which gives 80% of the maximum response. The antagonists were applied 15 min before the application of the agonist L-glutamate. The assays were performed at room temperature and measurements done by using a Fluorometric Imaging Plate Reader (FLIPR, Molecular Devices) and filter #2. Responses were measured as peak increase in fluorescence minus basal (i.e. fluorescence without addition of L-glutamate). Kb was determined using the Cheng-Prusoff equation Kb=IC50/[1+(A/EC50)], where IC50 is the concentration of the antagonist producing 50% inhibition, A is the concentration of the agonist against which the IC50 is being determined (at EC80) and EC50 is the concentration of the agonist producing 50% […].

SMILES | Kb (human EAAT3) [nM] | melting point [°C]
CC(C)(C)NC(=O)c1cc(-c2ccc(F)cc2)nc(-c2ccnn2CC2CC2)c1 [Example 12, N-tert-Butyl-2-[2-(cyclopropylmethyl)-pyrazol-3-yl]-6-(4-fluorophenyl)-pyridine-4-carboxamide] | 310 | 203
CC(C)(CO)NC(=O)c1cc(-c2ccc(Cl)cc2)nc(-c2ccnn2C(C)(C)C)c1 [Example 55, 2-(2-tert-Butyl-pyrazol-3-yl)-6-(4-chlorophenyl)-N-(1-hydroxy-2-methyl-propan-2-yl)-pyridine-4-carboxamide] | 73 | 177
CC(C)(C)NC(=O)c1cc(-c2ccc(Cl)cc2)nc(-c2ccnn2CC2CC2)c1 [Example 40, N-tert-Butyl-2-(4-chlorophenyl)-6-[2-(cyclopropyl-methyl)-pyrazol-3-yl]-pyridine-4-carboxamide] | 490 | 218
CC(C)n1nccc1-c1cc(C(=O)NC(C)(C)CO)cc(-c2ccc(F)cc2)n1 [Example 47, 2-(4-Fluorophenyl)-N-(1-hydroxy-2-methyl-propan-2-yl)-6-(2-propan-2-yl-pyrazol-3-yl)-pyridine-4-carboxamide] | 310 | 180
CC(C)(CO)NC(=O)c1cc(-c2ccc(F)cc2)nc(-c2ccnn2C(C)(C)C)c1 [Example 16, 2-(2-tert-Butyl-pyrazol-3-yl)-6-(4-fluorophenyl)-N-(1-hydroxy-2-methyl-propan-2-yl)-pyridine-4-carboxamide] | 80 | 142
CC(C)(C)NC(=O)c1cc(-c2ccc(F)c(F)c2)nc(-c2ccnn2C(C)(C)C)c1 [Example 19, N-tert-Butyl-2-(2-tert-butyl-pyrazol-3-yl)-6-(3,4-difluoro-phenyl)-pyridine-4-carboxamide] | 50 | 216
CC(C)(NC(=O)c1cc(-c2ccc(Cl)cc2)nc(-c2ccnn2C(C)(C)C)c1)C1CC1 [Example 53, 2-(2-tert-Butyl-pyrazol-3-yl)-6-(4-chlorophenyl)-N-(2-cyclopropyl-propan-2-yl)-pyridine-4-carboxamide] | 860 | 161
CC(C)(C#N)NC(=O)c1cc(-c2ccc(Cl)cc2)nc(-c2ccnn2C(C)(C)C)c1 [Example 56, 2-(2-tert-Butyl-pyrazol-3-yl)-6-(4-chlorophenyl)-N-(2-cyano-propan-2-yl)-pyridine-4-carboxamide] | 210 | 230
Cn1nccc1-c1cc(C(=O)NC(C)(C)C)cc(-c2ccc(Cl)cc2)n1 [Example 1, N-tert-Butyl-2-(4-chlorophenyl)-6-(2-methyl-pyrazol-3-yl)-pyridine-4-carboxamide] | 370 | 184
CC(C)(C#N)NC(=O)c1cc(-c2ccc(F)cc2)nc(-c2ccnn2C(C)(C)C)c1 [Example 14, 2-(2-tert-Butylpyrazol-3-yl)-N-(2-cyano-propan-2-yl)-6-(4-fluoro-phenyl)-pyridine-4-carboxamide] | 71 | 213
CC(C)n1nccc1-c1cc(C(=O)NC(C)(C)C)cc(-c2ccc(F)cc2)n1 [Example 8, N-tert-Butyl-2-(4-fluorophenyl)-6-(2-propan-2-yl-pyrazol-3-yl)-pyridine-4-carboxamide] | 260 | 200
Cc1cc(-c2cc(C(=O)NC(C)(C)C)cc(-c3ccnn3C(C)C)n2)ccc1F [Example 37, N-tert-Butyl-2-(4-fluoro-3-methyl-phenyl)-6-(2-propan-2-yl-pyrazol-3-yl)-pyridine-4-carboxamide] | 400 | 160
CC(C)c1ccc(-c2cc(C(=O)NC(C)(C)C)cc(-c3ccnn3C(C)(C)C)n2)cc1 [Example 20, N-tert-Butyl-2-(2-tert-butyl-pyrazol-3-yl)-6-(4-propan-2-yl-phenyl)-pyridine-4-carboxamide] | 100 | 202
Cc1ccc(-c2cc(C(=O)NC(C)(C)C)cc(-c3ccnn3C(C)(C)C)n2)cc1 [Example 22, N-tert-Butyl-2-(2-tert-butyl-pyrazol-3-yl)-6-(4-methyl-phenyl)-pyridine-4-carboxamide] | 54 | 182
CC(C)n1nccc1-c1cc(C(=O)NC(C)(C)C)cc(-c2ccc(Cl)cc2)n1 [Example 7, N-tert-Butyl-2-(4-chlorophenyl)-6-(2-propan-2-yl-pyrazol-3-yl)-pyridine-4-carboxamide] | 370 | 207
CCC(C)(C)NC(=O)c1cc(-c2ccc(F)cc2)nc(-c2ccnn2C(C)(C)C)c1 [Example 10, 2-(2-tert-Butylpyrazol-3-yl)-6-(4-fluorophenyl)-N-(2-methylbutan-2-yl)-pyridine-4-carboxamide] | 140 | 154
CC(C)(C)NC(=O)c1cc(-c2ccc(C3CC3)cc2)nc(-c2ccnn2C(C)(C)C)c1 [Example 17, N-tert-Butyl-2-(2-tert-butyl-pyrazol-3-yl)-6-(4-cyclopropyl-phenyl)-pyridine-4-carboxamide] | 110 | 

Now from value to molecule:

Kb (human EAAT3) [nM] | melting point [°C] | SMILES
110 | 208 | CC(C)(C)NC(=O)c1cc(-c2ccc(Cl)c(F)c2)nc(-c2ccnn2C(C)(C)C)c1 [Example 24, N-tert-Butyl-2-(2-tert-butyl-pyrazol-3-yl)-6-(4-chloro-3-fluoro-phenyl)-pyridine-4-carboxamide]
560 | 161 | Cn1nccc1-c1cc(C(=O)NC(C)(C)C)cc(-c2ccc(F)cc2)n1 [Example 2, N-tert-Butyl-2-(4-fluorophenyl)-6-(2-methyl-pyrazol-3-yl)-pyridine-4-carboxamide]
3100 | 164 | CC(C)n1nccc1-c1cc(C(=O)NC(C)(C)C2CC2)cc(-c2ccc(Cl)cc2)n1 [Example 49, 2-(4-Chlorophenyl)-N-(2-cyclopropyl-propan-2-yl)-6-(2-propan-2-yl-pyrazol-3-yl)-pyridine-4-carboxamide]
450 | 173 | CC(C)n1nccc1-c1cc(C(=O)NC(C)(C)C)cc(-c2ccc(C(F)(F)F)cc2)n1 [Example 6, N-tert-Butyl-2-(2-propan-2-yl-pyrazol-3-yl)-6-[4-(trifluoromethyl)-phenyl]-pyridine-4-carboxamide]
190 | 192 | CC1(NC(=O)c2cc(-c3ccc(F)cc3)nc(-c3ccnn3C(C)(C)C)c2)CCS(=O)(=O)C1 (racemic) [Example 9, (RS)-2-(2-tert-Butylpyrazol-3-yl)-6-(4-fluorophenyl)-N-(3-methyl-1,1-dioxothiolan-3-yl)-pyridine-4-carboxamide]
160 | 204 | CC(C)(C)NC(=O)c1cc(-c2ccc(Cl)cc2)nc(-c2ccnn2C(C)(C)C)c1 [Example 4, N-tert-Butyl-2-(2-tert-butyl-pyrazol-3-yl)-6-(4-chlorophenyl)-pyridine-4-carboxamide]
440 | 206 | CC(C)(C)n1nccc1-c1cc(C(=O)NC(C)(C)C(F)(F)F)cc(-c2ccc(Cl)cc2)n1 [Example 54, 2-(2-tert-Butyl-pyrazol-3-yl)-6-(4-chlorophenyl)-N-(1,1,1-trifluoro-2-methyl-propan-2-yl)-pyridine-4-carboxamide]
360 | 170 | CCn1nccc1-c1cc(C(=O)NC(C)(C)C)cc(-c2ccc(F)cc2)n1 [Example 11, N-tert-Butyl-2-(2-ethylpyrazol-3-yl)-6-(4-fluorophenyl)-pyridine-4-carboxamide]
1430 | 177 | CC(C)n1nccc1-c1cc(C(=O)NC(C)(C)C(F)(F)F)cc(-c2ccc(Cl)cc2)n1 [Example 50, 2-(4-Chlorophenyl)-6-(2-propan-2-yl-pyrazol-3-yl)-N-(1,1,1-trifluoro-2-methylpropan-2-yl)-pyridine-4-carboxamide]
